The first experiment in a line: Antiproliferative activity against VEGF-stimulated HUVEC cells assessed as reduction in cell viability at 2 nM preincubated for 1 hr followed by addition of VEGF measured after 72 hrs by MTT assay. Type of experiment: functional. The conditions noted are these: Homo sapiens.
Take `O=C(NNCCO)c1ccccc1Nc1ccc2c(/C=C/c3ccccn3)n[nH]c2c1`: the inhibition at 0.002 µM came to 18%.

For the molecule `O=C(NCCCCO)c1ccccc1Nc1ccc2c(/C=C/c3ccccn3)n[nH]c2c1`, the inhibition at 0.002 µM worked out at 40%.

`CC1(C)CC(NC(=O)c2ccccc2Nc2ccc3c(/C=C/c4ccccn4)n[nH]c3c2)C(C)(C)N1O` (centres undefined): the inhibition at 0.002 µM is 8%.

As for `O=C(NCCCn1ccnc1)c1ccccc1Nc1ccc2c(/C=C/c3ccccn3)n[nH]c2c1`, the inhibition at 0.002 µM turned out to be 23%.

Take `CN(CCCNC(=O)c1ccccc1Nc1ccc2c(/C=C/c3ccccn3)n[nH]c2c1)c1ccccc1`: the inhibition at 0.002 µM worked out at 25%.

In the case of `CCNC(=O)c1ccccc1Nc1ccc2c(/C=C/c3ccccn3)n[nH]c2c1`, the inhibition at 0.002 µM was 17%.

On to `CC(C)CCNC(=O)c1ccccc1Nc1ccc2c(/C=C/c3ccccn3)n[nH]c2c1`, for which the inhibition at 0.002 µM fell in the range of 47 to 55%.

A short description of the next experiment: Antiproliferative activity against VEGF-stimulated HUVEC cells assessed as reduction in cell viability at 0.5 nM preincubated for 1 hr followed by addition of VEGF measured after 72 hrs by MTT assay. Type of experiment: functional. The conditions noted are these: Homo sapiens.
Take `O=C(NNCCO)c1ccccc1Nc1ccc2c(/C=C/c3ccccn3)n[nH]c2c1`: the inhibition at 0.0005 µM was 33%.

`O=C(NCCCCO)c1ccccc1Nc1ccc2c(/C=C/c3ccccn3)n[nH]c2c1`: the inhibition at 0.0005 µM was determined as 35%.

Consider `CC1(C)CC(NC(=O)c2ccccc2Nc2ccc3c(/C=C/c4ccccn4)n[nH]c3c2)C(C)(C)N1O` (centres undefined), for which the inhibition at 0.0005 µM was determined as 15%.

On to `O=C(NCCCn1ccnc1)c1ccccc1Nc1ccc2c(/C=C/c3ccccn3)n[nH]c2c1`, for which the inhibition at 0.0005 µM was determined as 23%.

With `CN(CCCNC(=O)c1ccccc1Nc1ccc2c(/C=C/c3ccccn3)n[nH]c2c1)c1ccccc1`, the inhibition at 0.0005 µM stood at 18%.

`CCNC(=O)c1ccccc1Nc1ccc2c(/C=C/c3ccccn3)n[nH]c2c1`: the inhibition at 0.0005 µM amounted to 16%.

Consider `CC(C)CCNC(=O)c1ccccc1Nc1ccc2c(/C=C/c3ccccn3)n[nH]c2c1`, for which the inhibition at 0.0005 µM was in the range of 14 to 47%.

On to `COc1ccccc1NC(=O)c1ccccc1Sc1ccc2c(/C=C/c3ccccn3)n[nH]c2c1`, for which the inhibition at 0.0005 µM is -8%.

Consider `O=C(NCCc1cccs1)c1ccccc1Sc1ccc2c(/C=C/c3ccccn3)n[nH]c2c1`, for which the inhibition at 0.0005 µM came to 36%.

Turning to `O=C(Nc1c(Cl)cccc1Cl)c1ccccc1Sc1ccc2c(/C=C/c3ccccn3)n[nH]c2c1`, the inhibition at 0.0005 µM was -45%.

Take `CC(C)(C)CNC(=O)c1ccccc1Nc1ccc2c(/C=C/c3ccccn3)n[nH]c2c1`: the inhibition at 0.0005 µM lay within 5 to 19%.

Consider `CC(C)Oc1ccc(NC(=O)c2ccccc2Sc2ccc3c(/C=C/c4ccccn4)n[nH]c3c2)cc1`, for which the inhibition at 0.0005 µM was -9%.

In the case of `Cc1ccc(C(N)=O)cc1NC(=O)c1ccccc1Sc1ccc2c(/C=C/c3ccccn3)n[nH]c2c1`, the inhibition at 0.0005 µM was 15%.

For `O=C(NCCCc1ccccc1)c1ccccc1Nc1ccc2c(/C=C/c3ccccn3)n[nH]c2c1`, the inhibition at 0.0005 µM turned out to be 50%.

As for `Cn1c(NC(=O)c2ccccc2Sc2ccc3c(/C=C/c4ccccn4)n[nH]c3c2)nc2ccccc21`, the inhibition at 0.0005 µM is -21%.

For the molecule `CCCc1ccc(NC(=O)c2ccccc2Sc2ccc3c(/C=C/c4ccccn4)n[nH]c3c2)cc1`, the inhibition at 0.0005 µM came to 22%.

In the case of `C[C@H](NC(=O)c1ccccc1Sc1ccc2c(/C=C/c3ccccn3)n[nH]c2c1)c1ccccc1`, the inhibition at 0.0005 µM is -3%.

As for `O=C(NNC(=O)c1ccccc1Nc1ccc2c(/C=C/c3ccccn3)n[nH]c2c1)c1ccccn1`, the inhibition at 0.0005 µM was determined as 69%.

As for `COc1ccccc1CNC(=O)c1ccccc1Nc1ccc2c(/C=C/c3ccccn3)n[nH]c2c1`, the inhibition at 0.0005 µM was 36%.

Consider `CCC(NC(=O)c1ccccc1Nc1ccc2c(/C=C/c3ccccn3)n[nH]c2c1)c1ccccc1` (centres undefined), for which the inhibition at 0.0005 µM was 45%.

For `O=C(Nc1cccc2c1CCCC2)c1ccccc1Sc1ccc2c(/C=C/c3ccccn3)n[nH]c2c1`, the inhibition at 0.0005 µM was -17%.

With `CCc1cccc(C)c1NC(=O)c1ccccc1Sc1ccc2c(/C=C/c3ccccn3)n[nH]c2c1`, the inhibition at 0.0005 µM was -4%.

`CCONC(=O)c1ccccc1Nc1ccc2c(/C=C/c3ccccn3)n[nH]c2c1`: the inhibition at 0.0005 µM is 72%.

With `Cc1ccc(F)c(NC(=O)c2ccccc2Sc2ccc3c(/C=C/c4ccccn4)n[nH]c3c2)c1`, the inhibition at 0.0005 µM was -1%.

As for `COc1ccc(C(N)=O)cc1NC(=O)c1ccccc1Sc1ccc2c(/C=C/c3ccccn3)n[nH]c2c1`, the inhibition at 0.0005 µM came to 5%.

Regarding `CCCCC(NC(=O)c1ccccc1Sc1ccc2c(/C=C/c3ccccn3)n[nH]c2c1)C(=O)NO` (centres undefined), the inhibition at 0.0005 µM was found to be 0%.

With `O=C(NC12CC3CC(CC(C3)C1)C2)c1ccccc1Sc1ccc2c(/C=C/c3ccccn3)n[nH]c2c1`, the inhibition at 0.0005 µM stood at 3%.

On to `O=C(Nc1cccc2ccc(O)cc12)c1ccccc1Sc1ccc2c(/C=C/c3ccccn3)n[nH]c2c1`, for which the inhibition at 0.0005 µM is -6%.

`O=C(Nc1ccc(F)c(F)c1)c1ccccc1Sc1ccc2c(/C=C/c3ccccn3)n[nH]c2c1`: the inhibition at 0.0005 µM was -38%.

As for `CCC(C)(C)NC(=O)c1ccccc1Sc1ccc2c(/C=C/c3ccccn3)n[nH]c2c1`, the inhibition at 0.0005 µM was -29%.

On to `O=C(NCc1ccccc1)c1ccccc1Nc1ccc2c(/C=C/c3ccccn3)n[nH]c2c1`, for which the inhibition at 0.0005 µM was found to be 70%.

As for `O=C(Nc1ccc(O)cc1O)c1ccccc1Sc1ccc2c(/C=C/c3ccccn3)n[nH]c2c1`, the inhibition at 0.0005 µM was found to be 20%.

`O=C(Nc1cnc2ccccc2c1)c1ccccc1Sc1ccc2c(/C=C/c3ccccn3)n[nH]c2c1`: the inhibition at 0.0005 µM is -8%.

Take `Cc1cc(NC(=O)c2ccccc2Sc2ccc3c(/C=C/c4ccccn4)n[nH]c3c2)ccc1Cl`: the inhibition at 0.0005 µM was -43%.

On to `O=C(Nc1ccc2c(c1)CCC2)c1ccccc1Sc1ccc2c(/C=C/c3ccccn3)n[nH]c2c1`, for which the inhibition at 0.0005 µM was -6%.

For the molecule `O=C(N[C@H](CO)Cc1ccccc1)c1ccccc1Sc1ccc2c(/C=C/c3ccccn3)n[nH]c2c1`, the inhibition at 0.0005 µM worked out at 1%.

In the case of `C#CCNC(=O)c1ccccc1Nc1ccc2c(/C=C/c3ccccn3)n[nH]c2c1`, the inhibition at 0.0005 µM turned out to be 95%.

Consider `O=C(Nc1cc(F)cc(F)c1)c1ccccc1Sc1ccc2c(/C=C/c3ccccn3)n[nH]c2c1`, for which the inhibition at 0.0005 µM was -36%.

As for `O=C(N[C@H](CO)c1ccccc1)c1ccccc1Sc1ccc2c(/C=C/c3ccccn3)n[nH]c2c1`, the inhibition at 0.0005 µM is 18%.

As for `O=C(NCc1ccccc1F)c1ccccc1Nc1ccc2c(/C=C/c3ccccn3)n[nH]c2c1`, the inhibition at 0.0005 µM was 75%.

For the molecule `C[C@@H](NC(=O)c1ccccc1Sc1ccc2c(/C=C/c3ccccn3)n[nH]c2c1)c1cccc2ccccc12`, the inhibition at 0.0005 µM came out at 1%.

With `O=C(NC[C@H]1CCCO1)c1ccccc1Sc1ccc2c(/C=C/c3ccccn3)n[nH]c2c1`, the inhibition at 0.0005 µM is -11%.

Consider `O=C(N[C@H]1CC2CCC1C2)c1ccccc1Sc1ccc2c(/C=C/c3ccccn3)n[nH]c2c1` (some centres undefined), for which the inhibition at 0.0005 µM was -9%.

In the case of `CC(C)(C)OC(=O)C(C)(C)NC(=O)c1ccccc1Sc1ccc2c(/C=C/c3ccccn3)n[nH]c2c1`, the inhibition at 0.0005 µM stood at 6%.

As for `C[C@@H](O)CNC(=O)c1ccccc1Sc1ccc2c(/C=C/c3ccccn3)n[nH]c2c1`, the inhibition at 0.0005 µM was determined as 22%.

As to `O=C(NC[C@@H]1CCCO1)c1ccccc1Sc1ccc2c(/C=C/c3ccccn3)n[nH]c2c1`, the inhibition at 0.0005 µM was -8%.

For `O=C(Nc1cccc(-c2nnco2)c1)c1ccccc1Sc1ccc2c(/C=C/c3ccccn3)n[nH]c2c1`, the inhibition at 0.0005 µM was -23%.

On to `C[C@H](NC(=O)c1ccccc1Sc1ccc2c(/C=C/c3ccccn3)n[nH]c2c1)c1ccc2ccccc2c1`, for which the inhibition at 0.0005 µM is -8%.

`Cc1c(Cl)cccc1NC(=O)c1ccccc1Sc1ccc2c(/C=C/c3ccccn3)n[nH]c2c1`: the inhibition at 0.0005 µM is 9%.

As to `O=C(N[C@@H](CO)Cc1ccccc1)c1ccccc1Sc1ccc2c(/C=C/c3ccccn3)n[nH]c2c1`, the inhibition at 0.0005 µM is -3%.

For `Cc1ccc(NC(=O)c2ccccc2Sc2ccc3c(/C=C/c4ccccn4)n[nH]c3c2)cc1`, the inhibition at 0.0005 µM is -15%.

With `C#CC(NC(=O)c1ccccc1Sc1ccc2c(/C=C/c3ccccn3)n[nH]c2c1)C1CCCCC1` (centres undefined), the inhibition at 0.0005 µM worked out at 3%.

With `COc1ccc(NC(=O)c2ccccc2Sc2ccc3c(/C=C/c4ccccn4)n[nH]c3c2)cc1O`, the inhibition at 0.0005 µM is -19%.

With `O=C(N[C@H]1CCc2ccccc21)c1ccccc1Sc1ccc2c(/C=C/c3ccccn3)n[nH]c2c1`, the inhibition at 0.0005 µM lay in the range of 8 to 15%.

Regarding `CC(C)c1cccc(NC(=O)c2ccccc2Sc2ccc3c(/C=C/c4ccccn4)n[nH]c3c2)c1`, the inhibition at 0.0005 µM worked out at 8%.

As to `Cc1ccccc1NC(=O)c1ccccc1Sc1ccc2c(/C=C/c3ccccn3)n[nH]c2c1`, the inhibition at 0.0005 µM turned out to be 5%.

For `CC(=O)Nc1cccc(NC(=O)c2ccccc2Sc2ccc3c(/C=C/c4ccccn4)n[nH]c3c2)c1`, the inhibition at 0.0005 µM is -29%.

Take `Cc1cc(F)ccc1NC(=O)c1ccccc1Sc1ccc2c(/C=C/c3ccccn3)n[nH]c2c1`: the inhibition at 0.0005 µM was -22%.

`O=C(NCc1ccc2c(c1)OCO2)c1ccccc1Nc1ccc2c(/C=C/c3ccccn3)n[nH]c2c1`: the inhibition at 0.0005 µM amounted to 46%.

Consider `COc1cccc(OC)c1NC(=O)c1ccccc1Sc1ccc2c(/C=C/c3ccccn3)n[nH]c2c1`, for which the inhibition at 0.0005 µM is -57%.

Take `CCCCc1ccc(NC(=O)c2ccccc2Sc2ccc3c(/C=C/c4ccccn4)n[nH]c3c2)cc1`: the inhibition at 0.0005 µM is -22%.

On to `Cc1c(O)cccc1NC(=O)c1ccccc1Sc1ccc2c(/C=C/c3ccccn3)n[nH]c2c1`, for which the inhibition at 0.0005 µM amounted to 1%.

In the case of `O=C(N[C@@H]1C[C@H]1c1ccccc1)c1ccccc1Sc1ccc2c(/C=C/c3ccccn3)n[nH]c2c1` (racemic), the inhibition at 0.0005 µM is 10%.

As to `CCc1cccc(NC(=O)c2ccccc2Sc2ccc3c(/C=C/c4ccccn4)n[nH]c3c2)n1`, the inhibition at 0.0005 µM was -12%.

Consider `COc1sc(NC(=O)c2ccccc2Sc2ccc3c(/C=C/c4ccccn4)n[nH]c3c2)nc1C`, for which the inhibition at 0.0005 µM is -2%.

`CC(C)(Cc1ccc(F)cc1)NC(=O)c1ccccc1Sc1ccc2c(/C=C/c3ccccn3)n[nH]c2c1`: the inhibition at 0.0005 µM is -7%.

With `Cc1ccc(Cl)cc1NC(=O)c1ccccc1Sc1ccc2c(/C=C/c3ccccn3)n[nH]c2c1`, the inhibition at 0.0005 µM was determined as 22%.

Take `C[C@@H](NC(=O)c1ccccc1Sc1ccc2c(/C=C/c3ccccn3)n[nH]c2c1)C1CCCCC1`: the inhibition at 0.0005 µM stood at 9%.

As for `CCCCNC(=O)c1ccccc1Nc1ccc2c(/C=C/c3ccccn3)n[nH]c2c1`, the inhibition at 0.0005 µM was 52%.

As to `COc1ccc(NC(=O)c2ccccc2Sc2ccc3c(/C=C/c4ccccn4)n[nH]c3c2)cc1`, the inhibition at 0.0005 µM was 4%.

On to `C[C@H](NC(=O)c1ccccc1Sc1ccc2c(/C=C/c3ccccn3)n[nH]c2c1)c1cccc2ccccc12`, for which the inhibition at 0.0005 µM is -20%.

With `COc1ccc(CNC(=O)c2ccccc2Nc2ccc3c(/C=C/c4ccccn4)n[nH]c3c2)cc1`, the inhibition at 0.0005 µM amounted to 63%.

The values are drawn from ChEMBL document CHEMBL3880421, “Indazole compounds and pharmaceutical compositions for inhibiting protein kinases, and methods for their use” (2003).
